# What was measured:
# Type in all cases: biochemical
# [1] = biological target: T1, Recombinant human TMPRSS2 protein (106-492 aa) (Homo sapiens, UniProt O15393); test: TMPRSS2 Assay 1 (Example 41), fluorogenic Boc-Gln-Ala-Arg-AMC cleavage; conditions: TMPRSS2 10 nM, substrate 25 μM, 20 min pre-incubation
# T1 construct: Human TMPRSS2-(AA 106-492)-; purchased CusaBio CSB-YP023924HU; host or cells: yeast
# Procedure: The enzyme (TMPRSS2, CusaBio cat #CSB-YP023924HU. Recombinant human TMPRSS2 protein (106-492 aa)N-terminal 6×His-tagged (“6×His” disclosed as SEQ ID NO: 4), expressed in yeast cells; MW=44.8 kDa, lyophilized from 20 mM: Tris HCl, 0.5 M NaCl, 6% Trehalose, pH 8.0, >85% purity as determined by SDS-PAGE. Uniprot: 015393; 10 nM in the reaction) and substrate (Boc-Gln-Ala-Arg-AMC; Enzo Cat #BML-P237-0005, MW=581.76 Da. 25 μM in the reaction) were prepared in Reaction Buffer (50 mM Tris-HCl pH 8, 150 mM NaCl, 0.005% Brij35, 1% DMSO). After the enzyme solution was delivered into the reaction well, the compounds in DMSO were delivered to the reaction mixture by using Acoustic Technology (Echo 550, LabCyte Inc. Sunnyvale, CA) in nanoliter range. After 20 min pre-incubation, the substrate solution was delivered into the reaction well to initiate the reaction. The enzyme activities were monitored every 5 min as a time-course measurement of the increase in fluorescence signal from fluorescently-labeled peptide substrate for 120 min. at room temperature. Data was analyzed by taking slope*(signal/time) of linear portion of measurement. The slope was calculated using Excel, and the curve fits were performed using Prism software.
# Cathepsin B = Cathepsin B (Homo sapiens, UniProt P07858); test: Non-TMPRSS2 protease panel: Cathepsin B; conditions: 10-dose, 3-fold from 10 μM
# Procedure: (§1) Biochemical activity of compound 1 (racemic mixture, batch 1), compound 3 (racemic), compound 11, and compound 2 (enantiomer 1, batch 1) in proteases indicated in Table 21, Table 22, Table 23, and Table 24, respectively, were measured by testing the compounds in a 10-dose IC50 with a 3-fold series dilution starting at 10 μM against the proteases. The protease activities were monitored as a time-course measurement of the increase in fluorescence signal from fluorescently-labeled peptide substrate, and initial linear portion of slope (signal/min) was analyzed. The curve fits were performed when the activities at the highest concentration of compounds were less than 65%.
# FVIIa = biological target: T2, FVIIa (Homo sapiens, UniProt P08709); test: Non-TMPRSS2 protease panel: FVIIa; conditions: 10-dose, 3-fold from 10 μM
# T2 construct: Elastase, FVIIa, Fxa, FXIa
# T2 sequence (P08709 213-466 limits assumed): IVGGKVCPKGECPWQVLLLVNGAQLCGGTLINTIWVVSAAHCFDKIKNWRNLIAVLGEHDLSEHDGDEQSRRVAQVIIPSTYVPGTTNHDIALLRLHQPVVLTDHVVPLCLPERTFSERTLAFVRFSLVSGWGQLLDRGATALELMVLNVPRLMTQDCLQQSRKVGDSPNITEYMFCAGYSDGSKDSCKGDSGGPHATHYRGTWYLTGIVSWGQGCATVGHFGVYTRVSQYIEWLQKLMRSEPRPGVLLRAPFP
# T2 sequence (P08709 61-212 partner limits assumed): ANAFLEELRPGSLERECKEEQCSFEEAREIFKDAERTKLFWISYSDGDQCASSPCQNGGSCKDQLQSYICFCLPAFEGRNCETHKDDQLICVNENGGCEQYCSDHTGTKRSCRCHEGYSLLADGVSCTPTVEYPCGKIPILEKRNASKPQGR
# Procedure: as §1
# Kallikrein 12 = biological target: T3, Kallikrein 12 (Homo sapiens, UniProt Q9UKR0); test: Non-TMPRSS2 protease panel: Kallikrein 12; conditions: 10-dose, 3-fold from 10 μM
# T3 sequence (Q9UKR0 18-248): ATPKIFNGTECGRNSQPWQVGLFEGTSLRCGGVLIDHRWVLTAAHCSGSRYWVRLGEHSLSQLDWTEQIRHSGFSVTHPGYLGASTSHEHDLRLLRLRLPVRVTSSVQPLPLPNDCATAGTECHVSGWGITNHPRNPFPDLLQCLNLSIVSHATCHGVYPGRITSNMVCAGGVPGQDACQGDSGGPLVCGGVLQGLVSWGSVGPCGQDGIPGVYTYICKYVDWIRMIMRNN
# Procedure: as §1
# Kallikrein 14 = biological target: T4, Kallikrein 14 (Homo sapiens, UniProt Q9P0G3); test: Non-TMPRSS2 protease panel: Kallikrein 14; conditions: 10-dose, 3-fold from 10 μM
# T4 sequence (Q9P0G3 25-251): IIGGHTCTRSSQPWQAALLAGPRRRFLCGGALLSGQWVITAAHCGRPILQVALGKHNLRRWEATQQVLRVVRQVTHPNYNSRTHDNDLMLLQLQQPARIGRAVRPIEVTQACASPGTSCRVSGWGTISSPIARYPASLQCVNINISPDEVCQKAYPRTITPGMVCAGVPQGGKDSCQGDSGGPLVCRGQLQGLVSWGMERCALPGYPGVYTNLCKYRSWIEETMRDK
# Procedure: as §1
# MMP 13 = MMP 13 (Homo sapiens, UniProt P45452); test: Non-TMPRSS2 protease panel: MMP 13; conditions: 10-dose, 3-fold from 10 μM
# Procedure: as §1
# MMP 14 = MMP 14 (Homo sapiens, UniProt P50281); test: Non-TMPRSS2 protease panel: MMP 14; conditions: 10-dose, 3-fold from 10 μM
# Procedure: as §1
# Plasma Kallikrein = Plasma Kallikrein (Homo sapiens, UniProt P03952); test: Non-TMPRSS2 protease panel: Plasma Kallikrein; conditions: 10-dose, 3-fold from 10 μM
# Procedure: as §1
# Plasmin = Plasmin (Homo sapiens, UniProt P00747); test: Non-TMPRSS2 protease panel: Plasmin; conditions: 10-dose, 3-fold from 10 μM
# Procedure: as §1
# Trypsin = test: Non-TMPRSS2 protease panel: Trypsin; conditions: 10-dose, 3-fold from 10 μM
# Procedure: as §1
# Tryptase b2 = Tryptase b2 (Homo sapiens, UniProt P20231); test: Non-TMPRSS2 protease panel: Tryptase b2; conditions: 10-dose, 3-fold from 10 μM
# Procedure: as §1
# T1 sequence (O15393 106-492): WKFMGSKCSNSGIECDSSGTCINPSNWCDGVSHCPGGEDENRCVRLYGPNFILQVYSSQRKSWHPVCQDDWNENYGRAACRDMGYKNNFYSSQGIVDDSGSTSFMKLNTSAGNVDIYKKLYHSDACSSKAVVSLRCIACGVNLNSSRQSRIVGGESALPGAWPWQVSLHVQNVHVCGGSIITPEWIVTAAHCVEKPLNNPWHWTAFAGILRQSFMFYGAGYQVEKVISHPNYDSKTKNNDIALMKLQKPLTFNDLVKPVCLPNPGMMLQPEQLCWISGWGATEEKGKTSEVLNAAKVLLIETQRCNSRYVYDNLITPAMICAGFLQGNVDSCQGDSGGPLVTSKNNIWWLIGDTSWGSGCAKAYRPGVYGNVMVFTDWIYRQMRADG
# Sequence of Plasmin (P00747 581-810 limits assumed, species assumed): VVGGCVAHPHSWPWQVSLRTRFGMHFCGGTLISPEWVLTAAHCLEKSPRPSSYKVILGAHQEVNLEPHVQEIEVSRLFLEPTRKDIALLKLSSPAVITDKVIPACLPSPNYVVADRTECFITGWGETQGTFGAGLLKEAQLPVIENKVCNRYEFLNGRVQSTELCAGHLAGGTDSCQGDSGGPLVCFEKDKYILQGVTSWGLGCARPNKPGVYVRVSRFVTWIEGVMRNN
# Sequence of Plasmin (P00747 97-580 partner limits assumed, species assumed): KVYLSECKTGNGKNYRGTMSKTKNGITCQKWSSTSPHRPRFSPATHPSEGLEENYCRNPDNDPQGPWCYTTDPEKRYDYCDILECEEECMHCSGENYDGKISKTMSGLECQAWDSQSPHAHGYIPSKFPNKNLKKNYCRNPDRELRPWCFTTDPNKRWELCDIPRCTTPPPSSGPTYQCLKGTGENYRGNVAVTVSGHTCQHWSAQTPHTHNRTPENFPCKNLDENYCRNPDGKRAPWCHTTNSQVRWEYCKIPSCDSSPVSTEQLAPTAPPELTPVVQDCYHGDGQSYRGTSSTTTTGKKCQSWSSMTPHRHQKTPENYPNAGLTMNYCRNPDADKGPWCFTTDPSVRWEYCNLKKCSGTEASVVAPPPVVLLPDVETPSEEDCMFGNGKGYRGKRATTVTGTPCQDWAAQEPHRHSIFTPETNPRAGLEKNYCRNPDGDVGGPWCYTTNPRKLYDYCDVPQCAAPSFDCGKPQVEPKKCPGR
# Sequence of Plasma Kallikrein (P03952 391-638 limits assumed): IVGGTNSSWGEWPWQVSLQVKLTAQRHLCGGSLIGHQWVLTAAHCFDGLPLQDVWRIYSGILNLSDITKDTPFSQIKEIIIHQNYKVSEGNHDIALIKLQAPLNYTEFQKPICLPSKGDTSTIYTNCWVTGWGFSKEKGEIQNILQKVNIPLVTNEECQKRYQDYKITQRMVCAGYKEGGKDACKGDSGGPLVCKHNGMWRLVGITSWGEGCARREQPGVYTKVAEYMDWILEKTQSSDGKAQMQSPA
# Sequence of Plasma Kallikrein (P03952 20-390 partner limits assumed): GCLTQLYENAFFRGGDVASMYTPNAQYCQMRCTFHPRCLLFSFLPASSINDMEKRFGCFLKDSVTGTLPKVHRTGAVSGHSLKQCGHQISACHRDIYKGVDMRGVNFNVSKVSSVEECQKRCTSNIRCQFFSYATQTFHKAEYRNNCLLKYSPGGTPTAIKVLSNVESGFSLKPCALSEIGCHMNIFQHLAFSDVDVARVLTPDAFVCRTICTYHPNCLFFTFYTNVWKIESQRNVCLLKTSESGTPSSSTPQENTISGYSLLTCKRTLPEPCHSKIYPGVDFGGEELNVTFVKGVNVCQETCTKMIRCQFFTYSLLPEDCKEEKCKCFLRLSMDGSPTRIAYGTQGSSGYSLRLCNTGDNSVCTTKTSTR
# Sequence of Tryptase b2 (P20231 31-275): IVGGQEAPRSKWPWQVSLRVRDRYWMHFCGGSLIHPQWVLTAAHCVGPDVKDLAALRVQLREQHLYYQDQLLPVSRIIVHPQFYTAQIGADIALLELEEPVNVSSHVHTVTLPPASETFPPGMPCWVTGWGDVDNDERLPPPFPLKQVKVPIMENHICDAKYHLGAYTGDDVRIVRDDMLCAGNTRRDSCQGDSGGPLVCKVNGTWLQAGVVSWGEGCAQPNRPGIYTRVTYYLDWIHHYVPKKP
SMILES,IC50 [1],IC50 (Cathepsin B),IC50 (FVIIa; FVIIa),IC50 (Kallikrein 12),IC50 (Kallikrein 14),IC50 (MMP 13),IC50 (MMP 14),IC50 (Plasma Kallikrein),IC50 (Plasmin),IC50 (Trypsin),IC50 (Tryptase b2),IC50 (FVIIa; Factor VIIa)
"N=C(N)c1cccc(C[C@H](NS(=O)(=O)c2ccccc2)c2nnco2)c1 (single isomer, unassigned) [Compound 2 (enantiomer 1, batch 1), 3-[2-Benzenesulfonamido-2-(1,3,4-oxadiazol-2-yl)ethyl]benzene-1-carboximidamide]",> 10 µM,> 10 µM,> 10 µM,> 10 µM,> 10 µM,> 10 µM,> 10 µM,> 10 µM,> 10 µM,> 10 µM,> 10 µM,
"COc1ccc2nc(C(Cc3cccc(C(=N)N)c3)NS(=O)(=O)c3ccccc3)sc2c1 (stereo not shown) [Compound 11, 3-[2-Benzenesulfonamido-2-(6-methoxy-1,3-benzothiazol-2-yl)ethyl]benzene-1-carboximidamide]",,> 10 µM,,> 10 µM,> 10 µM,> 10 µM,> 10 µM,> 10 µM,> 10 µM,> 10 µM,> 10 µM,> 10 µM
"N=C(N)c1cccc(CC(NS(=O)(=O)c2ccccc2)c2nc3ccccc3s2)c1 (racemic) [1 (racemic mixture, batch 1), 3-[2-Benzenesulfonamido-2-(1,3-benzothiazol-2-yl)ethyl]benzene-1-carboximidamide]",< 10 µM,> 10 µM,> 10 µM,> 10 µM,> 10 µM,> 10 µM,> 10 µM,> 10 µM,> 10 µM,> 10 µM,> 10 µM,
"N=C(N)c1cccc(CC(NS(=O)(=O)c2cccc(-c3ccc(Cl)cc3Cl)c2)c2nc3ccccc3s2)c1 (racemic) [3 (racemic), 3-[2-(1,3-Benzothiazol-2-yl)-2-{2′,4′-dichloro-[1,1′-biphenyl]-3-sulfonamido}ethyl]benzene-1-carboximidamide]",< 10 µM,> 10 µM,> 10 µM,> 10 µM,> 10 µM,> 10 µM,< 10 µM,> 10 µM,> 10 µM,< 10 µM,< 10 µM,

# — patent US20240132457A1, “3-(2-(BENZO[D]THIAZOL-2-YL)-2-(PHENYLSUFONAMIDO)ETHYL)BENZIMIDAMIDE DERIVATIVES AND RELATED COMPOUNDS AS TMPRSS2 INHIBITORS FOR THE TREATMENT OF VIRAL INFECTIONS” (INTEGERBIO, INC., priority 2020, published 2024)
